In patent publication US10568876B2, “Tetrahydroisoquinoline derivatives useful as inhibitors of diacylglyceride O-acyltransferase 2” (Merck Sharp & Dohme Corp., priority 2014, dated 2020):

target: hDGAT2 (Homo sapiens (Human), UniProt Q96PD7); experiment: DGAT2 Enzymatic Activity Assay; format: biochemical; conditions: hDGAT2 Sf-9 membrane prep; 25 μM diolein, 10 μM oleoyl-CoA; triolein product by LC/MS/MS; read-out: IC50 values for inhibition of DGAT2
Procedure: Sf-9 insect cells were maintained in Grace's insect cell culture medium with 10% heated-inactivated fetal bovine serum, 1% Pluronic F-68 and 0.14 μg/ml Kanamycine sulfate in Erlenmeyer flasks at 28° C. in a shaker incubator. After infection with untagged hDGAT2 baculovirus at multiplicity of infection (MOI) 0.1 for 48 hours, cells were harvested. Cell pellets were suspended in buffer containing 10 mM Tris-HCl (pH 7.5), 1 mM EDTA (pH 8.0), 250 mM sucrose and Complete Protease Inhibitor Cocktail (Roche Diagnostics Corp., Indianapolis, Ill.), and sonicated on ice. Membrane fractions were isolated by ultracentrifugation (100,000×g pellet), resuspended in the same buffer, and frozen (−80° C.) for later use. The protein concentration was determined with the BCA Protein Assay kit (Pierce Biotechnology Inc., Rockford, Ill.). Expression of protein levels was analyzed by immunoblotting with goat polyclonal DGAT2 antibody C-15 and donkey anti-goat IgG HRP (Santa Cruz Biotechnology, Inc., Santa Cruz, Calif.) followed by detection with ECL reagent (GE Healthcare, Piscataway, N.J.).
LC/MS/MS analyses were performed using Thermal Fisher's LX4-TSQ Vantage system. This system consists of an Agilent binary high-performance liquid chromatography (HPLC) pumps and a TSQ Vantage triple quadrupole MS/MS instrument. For each sample, 2 μL, samples from the top organic layer of in-plate liquid-liquid extraction were injected onto a Thermo Betabasic C4 column (2.1 mm×20 mm, 5 μm particle size). The samples were then eluted using the following conditions; mobile phase: methanol/water with 0.1% ammonium format=92/8 (v/v), flow rate: 1 mL/min, temperature: 25 C. Data was acquired in positive mode using a heated electrospray ionization (HESI) interface. The operational parameters for the TSQ Vantage MS/MS instrument were a spray voltage of 3000 V, capillary temperature of 280° C., vaporizer temperature 400° C., shealth gas 60 arbitrary unit, Aux gas 40 arbitrary units, S-lens 113 and collision gas 0.16 Pascals. […] (SRM) chromatograms of triolein (Q1: 902.9>Q3: 602.3) and internal standard (Q1: 902.9>Q3: 602.3) were collected for 40 sec. The peak area was integrated by Xcalibur Quan software. The ratio between the triolein generated in the reaction and spiked in internal standard were used to generate percentage inhibition and IC50 values. Compound percentage inhibition was calculated by the following formula: Inhibition %=1-[(compound response low control)/(high control low control)]×100%. Potent compounds were titrated and IC50 were calculated by 4 parameter sigmoidal curve fitting formula.
DGAT2 activity was determined by measuring the amount of enzymatic product triolein (1,2,3-Tri(cis-9-octadecenoyl)glycerol) using the membrane prep mentioned above. The assay was carried out in deep well 384 plates in a final volume of 40 μL at room temperature. The assay mixture contained the following: assay buffer (100 mM Tris.Cl, pH 7.0, 20 mM MgCl2, 5% ethanol), 25 μM of diolein, 10 μM of oleoyl-CoA and 10 ng/μL of DGAT2 membrane.

Sequence of hDGAT2 (Q96PD7 whole entry): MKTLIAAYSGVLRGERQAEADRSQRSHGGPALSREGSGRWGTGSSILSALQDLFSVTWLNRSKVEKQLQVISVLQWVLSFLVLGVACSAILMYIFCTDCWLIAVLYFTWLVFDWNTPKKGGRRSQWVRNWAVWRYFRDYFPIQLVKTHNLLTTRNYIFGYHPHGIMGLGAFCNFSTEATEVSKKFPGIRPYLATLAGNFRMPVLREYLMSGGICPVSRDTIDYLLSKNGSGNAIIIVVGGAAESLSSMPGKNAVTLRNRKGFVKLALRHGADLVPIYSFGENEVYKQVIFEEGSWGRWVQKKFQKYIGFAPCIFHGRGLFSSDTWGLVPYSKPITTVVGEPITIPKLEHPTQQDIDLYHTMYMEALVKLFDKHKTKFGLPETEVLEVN

Row | Compound | IC50 [nM]
1 | COc1cccc(-c2ccc(CNC(=O)[C@@H]3C[C@H]3c3nc(C)no3)c3c2CCN(C(=O)NC2(C)COC2)C3)c1 (relative stereo) [Example 53, 5-(3-methoxyphenyl)-8-(((trans)-2-(3-methyl-1,2,4-oxadiazol-5-yl)cyclopropanecarboxamido)methyl)-N-(3-methyloxetan-3-yl)-3,4-dihydroisoquinoline-2(1H)-carboxamide] | 13.4
2 | Cc1noc([C@@H]2C[C@H]2C(=O)NCc2ccc(-c3cccc(OC(F)(F)F)c3)c3c2CN(CC(=O)N2CCOCC2(C)C)CC3)n1 (relative stereo) [Example 91, (trans)-N-((2-(2-(3,3-dimethylmorpholino)-2-oxoethyl)-5-(3-(trifluoromethoxy)phenyl)-1,2,3,4-tetrahydroisoquinolin-8-yl)methyl)-2-(3-methyl-1,2,4-oxadiazol-5-yl)cyclopropanecarboxamide] | 4300
3 | CC(C)(C)NC(=O)N1CCc2c(-c3cccc(OC(F)(F)F)c3)ccc(CNC(=O)C3CC3c3cccnc3)c2C1 (centres unmarked) [Example 4, N-(tert-butyl)-8-((2-(pyridin-3-yl)cyclopropanecarboxamido)methyl)-5-(3-(trifluoromethoxy)phenyl)-3,4-dihydroisoquinoline-2(1H)-carboxamide] | 11.7
4 | COC(=O)c1cccc(-c2ccc(CNC(=O)C3CC3c3nc(C)no3)c3c2CCN(C(=O)NC(C)(C)C)C3)c1 (centres unmarked) [Example 7, methyl 3-(2-(tert-butylcarbamoyl)-8-((2-(3-methyl-1,2,4-oxadiazol-5-yl)cyclopropanecarboxamido)methyl)-1,2,3,4-tetrahydroisoquinolin-5-yl)benzoate] | 15.5
5 | Cc1noc([C@@H]2C[C@H]2C(=O)NCc2ccc(-c3cccc(OC(F)(F)F)c3)c3c2CN(C(=O)NC(C)(C)C)CC3)n1 (relative stereo) [Example 12, N-(tert-butyl)-8-(((trans)-2-(3-methyl-1,2,4-oxadiazol-5-yl)cyclopropanecarboxamido)methyl)-5-(3-(trifluoromethoxy)phenyl)-3,4-dihydroisoquinoline-2(1H)-carboxamide] | 3.6
6 | COC(=O)c1cccc(-c2ccc(CNC(=O)C3CC34CCCCC4)c3c2CCN(C(=O)NC(C)(C)C)C3)c1 (centres unmarked) [Example 17, methyl 3-(2-(tert-butylcarbamoyl)-8-((spiro[2.5]octane-1-carboxamido)methyl)-1,2,3,4-tetrahydroisoquinolin-5-yl)benzoate] | 2.2
7 | Cc1noc([C@@H]2C[C@H]2C(=O)NCc2ccc(-c3cccc(C(F)(F)F)c3)c3c2CN(C(=O)Nc2ccon2)CC3)n1 (relative stereo) [Example 26, N-(isoxazol-3-yl)-8-(((trans)-2-(3-methyl-1,2,4-oxadiazol-5-yl)cyclopropanecarboxamido)methyl)-5-(3-(trifluoromethyl)phenyl)-3,4-dihydroisoquinoline-2(1H)-carboxamide] | 126
8 | CCCNC(=O)N1CCc2c(-c3cccc(C(F)(F)F)c3)ccc(CNC(=O)[C@@H]3C[C@H]3c3nc(C)no3)c2C1 (relative stereo) [Example 66, 8-(((trans)-2-(3-methyl-1,2,4-oxadiazol-5-yl)cyclopropanecarboxamido)methyl)-N-propyl-5-(3-(trifluoromethyl)phenyl)-3,4-dihydroisoquinoline-2(1H)-carboxamide] | 11.5
9 | Cc1noc([C@@H]2CC2C(=O)NCc2ccc(-c3cccc(OC(F)(F)F)c3)c3c2CN(CC(=O)N2[C@H](C)COC[C@H]2C)CC3)n1 (stereo partly drawn) [Example 108, (trans)-N-((2-(2-((3R,5R)-3,5-dimethylmorpholino)-2-oxoethyl)-5-(3-(trifluoromethoxy)phenyl)-1,2,3,4-tetrahydroisoquinolin-8-yl)methyl)-2-(3-methyl-1,2,4-oxadiazol-5-yl)cyclopropanecarboxamide] | 7380
10 | Cc1noc([C@@H]2C[C@H]2C(=O)NCc2ccc(-c3cccc(OC(F)(F)F)c3)c3c2CN(C(=O)NC2(C)COC2)CC3)n1 (relative stereo) [Example 67, 8-(((trans)-2-(3-methyl-1,2,4-oxadiazol-5-yl)cyclopropanecarboxamido)methyl)-N-(3-methyloxetan-3-yl)-5-(3-(trifluoromethoxy)phenyl)-3,4-dihydroisoquinoline-2(1H)-carboxamide] | 13.6

Continued, values first:

Row | IC50 [nM] | Compound
11 | 31 | CC(C)(C)NC(=O)N1CCc2c(-c3cccc(OC(F)(F)F)c3)ccc(CNC(=O)[C@H]3C[C@@H]3c3ccccc3)c2C1 (relative stereo) [Example 9, N-(tert-butyl)-8-(((trans)-2-phenylcyclopropanecarboxamido)methyl)-5-(3-(trifluoromethoxy)phenyl)-3,4-dihydroisoquinoline-2(1H)-carboxamide]
12 | 831 | COc1cccc(-c2ccc(CNC(=O)[C@@H]3C[C@H]3c3ccccc3)c3c2CCN(C(=O)C(C)(C)O)C3)c1 (relative stereo) [Example 117, (trans)-N-((2-(2-hydroxy-2-methylpropanoyl)-5-(3-methoxyphenyl)-1,2,3,4-tetrahydroisoquinolin-8-yl)methyl)-2-phenylcyclopropanecarboxamide]
13 | 992 | CC(C)(C)NC(=O)N1CCc2c(-c3cncc(CO)c3)ccc(CNC(=O)C3C[C@H]3c3ccccc3)c2C1 (stereo partly drawn) [Example 28, N-(tert-butyl)-5-(5-(hydroxymethyl)pyridin-3-yl)-8-(((trans)-2-phenylcyclopropanrcarboxamido)methyl)-3,4-dihydroisoquinoline-2(1H)-carboxamide]
14 | 3200 | COc1cccc(-c2ccc(CNC(=O)C3CC3c3ccccc3)c3c2CCN(c2ncccn2)C3)c1 (centres unmarked) [Example 110, N-((5-(3-methoxyphenyl)-2-(pyrimidin-2-yl)-1,2,3,4-tetrahydroisoquinolin-8-yl)methyl)-2-phenylcyclopropanecarboxamide]
15 | 2780 | COc1cccc(-c2ccc(CNC(=O)C3CC3c3ccccc3)c3c2CCN(S(C)(=O)=O)C3)c1 (centres unmarked) [Example 89, N-((5-(3-methoxyphenyl)-2-(methylsulfonyl)-1,2,3,4-tetrahydroisoquinolin-8-yl)methyl)-2-phenylcyclopropanecarboxamide]
16 | 97.6 | CC(C)(C)NC(=O)N1CCc2c(-c3cccc(-n4nccn4)c3)ccc(CNC(=O)[C@@H]3C[C@H]3c3ccccc3)c2C1 (relative stereo) [Example 48, 5-(3-(2H-1,2,3-triazol-2-yl)phenyl)-N-(tert-butyl)-8-(((trans)-2-phenylcyclopropanecarboxamido)methyl)-3,4-dihydroisoquinoline-2(1H)-carboxamide]
17 | 4040 | COc1cccc(-c2ccc(CNC(=O)[C@H]3C[C@@H]3c3ccccc3)c3c2CCN(c2nccc(C(F)(F)F)n2)C3)c1 (relative stereo) [Example 109, (trans)-N-((5-(3-methoxyphenyl)-2-(4-(trifluoromethyl)pyrimidin-2-yl)-1,2,3,4-tetrahydroisoquinolin-8-yl)methyl)-2-phenylcyclopropanecarboxamide]
18 | 2930 | COC(=O)c1cccc(-c2ccc(CNC(=O)C3CC3c3ccccc3)c3c2CCN(C(=O)Cc2ccccc2)C3)c1 (centres unmarked) [Example 112, methyl 3-(2-(2-phenylacetyl)-8-((2-phenylcyclopropanecarboxamido)methyl)-1,2,3,4-tetrahydroisoquinolin-5-yl)benzoate]
19 | 3470 | COC(=O)c1cccc(-c2ccc(CNC(=O)C3CC3c3ccccc3)c3c2CCN(CCC(F)(F)F)C3)c1 (centres unmarked) [Example 100, methyl 3-(8-((2-phenylcyclopropanecarboxamido)methyl)-2-(3,3,3-trifluoropropyl)-1,2,3,4-tetrahydroisoquinolin-5-yl)benzoate]
20 | 227 | CCOC(=O)CCCNC(=O)N1CCc2c(-c3cccc(OC)c3)ccc(CNC(=O)[C@@H]3C[C@H]3c3ccccc3)c2C1 (relative stereo) [Example 59, ethyl 4-(5-(3-methoxyphenyl)-8-(((trans)-2-phenylcyclopropanecarboxamido)methyl)-1,2,3,4-tetrahydroisoquinoline-2-carboxamido)butanoate]
